# Laboratory results published in publication PMC6956242 (Journal of Medicinal Chemistry, 2019).
# Read-outs that look alike come from different tables or passages of the source. The star is where a group is joined. Biotin = O=C1N[C@H]2[C@H](CS[C@H]2CCCCC(=O)*)N1
# T1: His6-RORγt-LBD (Homo sapiens, UniProt P51449)
# T1 sequence (P51449 265-518): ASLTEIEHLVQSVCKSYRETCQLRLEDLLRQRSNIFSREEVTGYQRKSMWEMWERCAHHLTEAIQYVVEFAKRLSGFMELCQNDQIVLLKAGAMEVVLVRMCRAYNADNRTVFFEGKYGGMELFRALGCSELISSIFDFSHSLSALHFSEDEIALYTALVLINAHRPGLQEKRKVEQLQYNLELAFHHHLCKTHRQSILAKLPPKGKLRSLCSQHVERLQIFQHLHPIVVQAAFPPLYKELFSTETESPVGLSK
# T2: His6-RORγt-LBD (human retinoic acid receptor-related orphan receptor γt ligand binding domain, residues … (human, UniProt P51449-1 265-518))
# T2 sequence (looked up): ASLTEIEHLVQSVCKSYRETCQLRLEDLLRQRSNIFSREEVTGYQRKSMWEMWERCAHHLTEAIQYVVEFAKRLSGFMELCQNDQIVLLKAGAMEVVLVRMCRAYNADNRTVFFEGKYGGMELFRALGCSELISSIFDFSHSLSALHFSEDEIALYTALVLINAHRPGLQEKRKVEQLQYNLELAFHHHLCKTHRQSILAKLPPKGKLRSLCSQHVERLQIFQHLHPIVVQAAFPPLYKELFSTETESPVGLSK
# Experiments:
# [1] = target: T1, His6-RORγt-LBD
# [2] = Chemical stability; assay type: physicochemical; details: 2 μM, aqueous buffer pH 7.4
# [3] = Microsomal stability phase II; assay type: in vitro ADME, human; details: 5 μM, UDPGA, 1 h, 37 °C
# [4] = Plasma protein binding; assay type: in vitro ADME; details: 5 μM, equilibrium dialysis 6 h, 37 °C
# [5] = Plasma stability; assay type: in vitro ADME; details: 5 μM, 100% plasma, 1 h, 37 °C
# [6] = PAMPA; assay type: in vitro ADME; details: 500 μM donor, 20 h
# [7] = target: T1, His6-RORγt-LBD; assay type: biochemical; details: for improvement in potency compared to phenyl 19: vs 19, coactivator recruitment IC50
# [8] = target: T2, His6-RORγt-LBD (human retinoic acid …); assay: AlphaScreen or HTRF
Molecule,chemical stability (% remain) [2] [% remain],microsomal stability phase 2 (% remain) [3] [% remain],plasma protein binding (% bound) [4] [% bound],plasma stability (% remain) [5] [% remain],PAMPA (% flux) [6] [% flux],also measured
"C[C@H]1O[C@@H](O[C@H]2[C@@H](O)C[C@H](O[C@H]3[C@@H](O)C[C@H](O[C@H]4CC[C@@]5(C)[C@H](CC[C@@H]6[C@@H]5C[C@@H](O)[C@]5(C)[C@@H](C7=CC(=O)OC7)CC[C@]65O)C4)O[C@@H]3C)O[C@@H]2C)C[C@H](O)[C@@H]1O [compound 1, digoxin, reference compound]",–,–,–,–,–,Hill slope ([1]; 0 μM cholesterol): –0.76 ± 0.05; Hill slope ([1]; 0.25 μM cholesterol): –0.77 ± 0.03; Hill slope ([1]; 1.0 μM cholesterol): –1.01 ± 0.06
"O=C(O)c1ccc(-c2nn(C(=O)c3c(Cl)cccc3C(F)(F)F)c3ccccc23)cc1 [compound 3, MRL-871, reference compound]",81.0,47.1,99.9,100,23.7,–
"O=C(O)c1ccc(NC(=O)c2c(-c3c(Cl)cccc3C(F)(F)F)noc2-c2ccccc2)cc1 [compound 8, 4-{3-[2-Chloro-6-(trifluoromethyl)phenyl]-5-phenyl-1,2-oxazole-4-amido}benzoic Acid]",95.4,100,97.8,99.9,60.1,–
"O=C(O)c1ccc(CNC(=O)c2c(-c3c(Cl)cccc3C(F)(F)F)noc2-c2ccccc2)cc1 [compound 18, 4-[({3-[2-Chloro-6-(trifluoromethyl)phenyl]-5-phenyl-1,2-oxazol-4-yl}formamido)methyl]benzoic Acid]",–,–,–,–,–,"increase in potency compared to the initial hit ([7]; vs 8, TR-FRET IC50): 6 fold"
"O=C(O)c1ccc(NCc2c(-c3c(Cl)cccc3C(F)(F)F)noc2-c2ccco2)cc1 [compound 23, 4-[({3-[2-Chloro-6-(trifluoromethyl)phenyl]-5-(furan-2-yl)-1,2-oxazol-4-yl}methyl)amino]benzoic Acid]",100,92.8,100,86.5,50.4,improvement in potency compared to phenyl 19 [7]: 9 fold
"O=C(O)c1ccc(NCc2c(-c3c(Cl)cccc3C(F)(F)F)noc2-c2cc[nH]c2)cc1 [compound 25, 4-[({3-[2-Chloro-6-(trifluoromethyl)phenyl]-5-(1H-pyrrol-3-yl)-1,2-oxazol-4-yl}methyl)amino]benzoic Acid]",95.3,69.8,99.9,85.9,33.6,Hill slope ([1]; 0 μM cholesterol): –0.77 ± 0.04; Hill slope ([1]; 0.25 μM cholesterol): –0.86 ± 0.03; Hill slope ([1]; 1.0 μM cholesterol): –1.01 ± 0.03; improvement in potency compared to phenyl 19 [7]: 36 fold
"O=C(O)c1ccc(NCc2c(-c3c(Cl)cccc3C(F)(F)F)noc2-c2cccc3ccccc23)cc1 [compound 26, 4-[({3-[2-Chloro-6-(trifluoromethyl)phenyl]-5-(naphthalen-1-yl)-1,2-oxazol-4-yl}methyl)amino]benzoic Acid]",–,–,–,–,–,"IC50 (TR-FRET coactivator recruitment) ([7]; RORγt LBD, SRC-1 box2 peptide, triplicate): no IC50 curve could be fitted"
Biotin-PSSHSSLTARHKILHRLLQEGSPSD-NH2 (SMILES CC[C@H](C)[C@H](NC(=O)[C@H](CCCCN)NC(=O)[C@H](Cc1c[nH]cn1)NC(=O)[C@H](CCCNC(=N)N)NC(=O)[C@H](C)NC(=O)[C@@H](NC(=O)[C@H](CC(C)C)NC(=O)[C@H](CO)NC(=O)[C@H](CO)NC(=O)[C@H](Cc1c[nH]cn1)NC(=O)[C@H](CO)NC(=O)[C@H](CO)NC(=O)[C@@H]1CCCN1C(=O)CCCC[C@@H]1SC[C@@H]2NC(=O)N[C@@H]21)[C@@H](C)O)C(=O)N[C@@H](CC(C)C)C(=O)N[C@@H](Cc1c[nH]cn1)C(=O)N[C@@H](CCCNC(=N)N)C(=O)N[C@@H](CC(C)C)C(=O)N[C@@H](CC(C)C)C(=O)N[C@@H](CCC(N)=O)C(=O)N[C@@H](CCC(=O)O)C(=O)NCC(=O)N[C@@H](CO)C(=O)N1CCC[C@H]1C(=O)N[C@@H](CO)C(=O)N[C@@H](CC(=O)O)C(N)=O) [N-terminal biotinylated SRC-1 box2 peptide],–,–,–,–,–,binding result [8]: binds
